From US9562053B2, “Benzo-fused heterocyclic derivatives useful as agonists of GPR120” (Janssen Pharmaceutica NV, priority 2013, dated 2017)

Tests used:
Format in all cases: cell-based
[1] = molecular target: T1, short form of the GPR120 receptor (Homo sapiens, UniProt Q5NUL3); assay: Human GPR120 DiscoveRx PathHunter Beta-Arrestin Assay, Procedure β-arrestin B (5000 cells/well)
T1 construct: host or cells: PathHunter CHO-K1 GPR120S β-Arrestin Cell Line
T1 sequence (Q5NUL3 1-361): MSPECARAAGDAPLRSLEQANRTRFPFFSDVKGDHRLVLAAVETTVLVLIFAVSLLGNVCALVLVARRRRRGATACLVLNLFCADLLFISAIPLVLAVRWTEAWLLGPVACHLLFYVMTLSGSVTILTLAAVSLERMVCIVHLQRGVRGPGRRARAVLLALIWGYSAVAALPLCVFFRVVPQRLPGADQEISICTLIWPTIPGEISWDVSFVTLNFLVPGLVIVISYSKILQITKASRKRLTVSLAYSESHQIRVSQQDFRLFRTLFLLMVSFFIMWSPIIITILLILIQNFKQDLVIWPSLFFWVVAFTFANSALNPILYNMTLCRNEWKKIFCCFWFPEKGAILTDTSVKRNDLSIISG
Source text: The binding of an agonist (medium/long chain fatty acids or small molecule agonists) to the G-protein-coupled receptor GPR120 activates phospholipase C, leading to release of intracellular Ca^+2 through the generation of inositol 1,4,5-trisphosphate (InsP3 or IP3). GPR120 activation can also trigger intracellular signaling via recruitment of β-Arrestin. In the present method, agonist-induced activation of the human GPR120 receptor is monitored through the use of PathHunter CHO-K1 GPR120 β-Arrestin Cell Line engineered by DiscoveRx, as detailed below. The cell lines are designed to co-express both the ProLink/Enzyme Donor (PK)-tagged GPCR and the Enzyme Activator (EA)-tagged β-Arrestin fusion proteins. Upon GPR120 receptor stimulation/activation, the EA-tagged β-Arrestin portion is translocated to the tagged receptor, where the two enzyme fragments are brought within close proximity. Under these conditions, these fragments can interact and form an active Beta-gal enzyme complex through Enzyme Fragment Complementation (EFC). This active Beta-gal complex can enzymatically hydrolyse the substrate to produce a detectable light signal; therefore, activation as a function of agonist concentration can be expressed as an EC50 value to determine relative compound activities. This in vitro assay therefore serves to assess compound agonist activity of the GPR120.
In Procedure β-arrestin B the cells used were PathHunter CHO-K1 GPR120S β-Arrestin Cell Line, expressing the short form of the GPR120 receptor (Accession #NM_181745), with 5000 cells/well.
The selected CHO-K1 GPR120 β-Arrestin cells were cultured in Ham's F12 media supplemented with 10% fetal bovine serum (FBS), 1% Glutamine, 1×p/s, 800 μg/ml G418 and 300 μg/ml Hygromycin B (for selection). Cell stocks were maintained and grown in a sub-confluent state using standard cell culture procedures. The day before the experiment, the cells were harvested with non-enzymatic cell dissociation buffer and re-suspended in complete growth media at the desired concentration. A Corning 384-plate was then seeded with the proper number of cells in a volume of 25 μL, per well. The seeded plates were incubated overnight at 37° C.
On the day of the experiment, the Assay Buffer containing (a) HBSS with Ca^++ and Mg^++, (b) 20 mM HEPES, and (c) 0.1% BSA stabilizer (pH 7.4) was prepared. The growth medium was gently removed from the cell plates and 20 μL of Assay Buffer added to each well. The plate was then incubated at 37° C. for 60 mins. Test compounds were serially diluted in Assay Buffer to desired concentrations (more particularly, to one or more of the following μM concentrations: 25 μM, 12.5 μM, 6.25 μM, 3.125 μM, 1.562 μM, 0.781 μM, 0.391 μM, 0.195 μM, 0.098 μM, 0.049 μM, 0.024 μM, 0.012 μM). Five μl of compound dilution was then added to each well and the plate incubated at 37° C. for 90 mins. The detection reagents were prepared according to the manufacture's instruction. Twelve μL of the detection reagents were added to each well and the plate incubated at room temperature for 60 mins.
The plates were read on an EnVision instrument, using Protocol name: Luminescence, Plate type: 384 Costar, Measurement height: 3 mm, Measurement time: 1 s, Aperture: 384 Plate aperture. The % activity relative to the positive control was calculated using the following equation:
The % Activity values were plotted versus the concentration of test compound and fitted to a sigmoidal dose-response curve with a Hill slope=1 (fixed value) using nonlinear regression with GraphPad Prism 5.0 to calculate the EC50 values. The Fitting Equation was: Y=Bottom+(Top−Bottom)/(1+10^((LogEC50−X)*HillSlope)), where X is the log of the concentration and Y is the response.

Human GPR120 short form [2] = molecular target: T2, Human GPR120 short form (Homo sapiens, UniProt Q5NUL3); assay: Human GPR120 in Calcium Flux Assay, Procedure Calcium B (4200 cells/well)
T2 construct: expressed in transfected cells
T2 sequence (Q5NUL3 1-361): T1 sequence (Q5NUL3 1-361)
Source text: (§1) This in vitro assay serves to assess test compound agonist activity against the short splice variant (SVS with Accession number NM_001195755.1 confirmed by sequencing data) of the GPR120 receptor. The Human Short splice variant #2 (NM_001195755.1) is missing an in-frame coding exon compared to variant 1 (the Human Long splice variant NM_181745.3), resulting in a shorter isoform (GPR120-S) lacking a 16 aa protein segment compared to isoform GPR120-L. The assay platform utilizes HEK-293 cells stably transfected to express the Human GPR120 short form. These cells are first loaded with the Ca^+2 sensitive dye, Fluo-4 NW. Upon stimulation, intracellular released Ca^+2 can bind to the dye and alter its fluorescence intensity. This increase in fluorescence signal, and thus the flux in intracellular [Ca^+2], is detected and quantitated by fluorescence imaging using a FLIPR reader. The effect of the agonist is measured as a function of concentration and used to calculate an EC50 based upon a response curve.
In this procedure 4200 cells/well were employed.
(§2) A Human GPR120 clone (Genbank accession number NM_001195755.1) was placed into the pcDNA3.1 mammalian expression vector carrying the neomycin resistance gene. A stable mammalian cell was generated by placing the above clone into a HEK293 background. Clonal cells responding to long chain fatty acids had expression levels of GPR120 confirmed by RT-qPCR. Human HEK-GPR120 cells were cultured in Dulbecco's Modified Eagle's Medium (DMEM)/F12 medium supplemented with 10% fetal bovine serum (FBS), 1% L-Glutamine and 1% penicillin/streptomycin and 0.5 mg/ml G-418. Cells were split 2 times a week to keep the cells in the log-phase growth.
(§3) In preparation for the assay, HEK cells stably transfected with Human GPR120 (2.5K cells per well in 25 uL growth medium) were seeded into 384-well plates and then incubated overnight (37° C., 5% CO2). The next day, the media was changed to 20 μl assay buffer and the cell starved for 1 h at 37° C. The dye loading solution (2× dye) was prepared using 10 ml assay buffer, 100 μl of 250 mM probenecid, 1 bottle of Component A, and 20 μl of dye in DMSO. Twenty μl of the 2× dye loading buffer was then added to each well. The plates were incubated at 37° C. for 30 min, then at room temperature for an additional 15 minutes, before performing the assay on FLIPR.
(§4) Test compounds were prepared in assay buffer (2 μl of test compound+198 μl assay buffer, final DMSO in assay plate is 0.2%) at the desired concentration, more particularly at 100 μM, 50 μM, 25 μM, 12.5 μM, 6.25 μM, 3.125 μM, 1.562 μM, 0.781 μM, 0.391 μM, 0.195 μM, 0.098 μM, 0.049 μM, 0.024 μM and 0.012 μM.
(§5) The assay was performed on a FLIPR plate reader using the following parameters. Baseline was read for 10 seconds at 1 sec intervals. The program was set to transfer 10 μL of ligand from compound plate to cell plate after baseline reading. Aspiration was executed at: 10 μl/sec speed, 4.6 μl height; Dispensing was executed at: 30 μl/sec speed, 45 μl height. After compound addition, each well was read for 300 sec, with measurements collected at 1 sec intervals.
(§6) The kinetic data from the FLIPR was based upon a 5 minute window for data collection. The fluorescence of each sample well was used for individual calculations of a normalized RFU value, which was defined as maximum response minus the minimum response. The normalized fluorescence reading (RFU) was calculated as follows: RFU=Fmax−Fmin
(§7) The data were fitted to a sigmoidal dose-response curve with a variable Hill slope (<2) using nonlinear regression with GraphPad Prism 5.0 to calculate the EC50 values. The Fitting Equation was: Y=Bottom+(Top−Bottom)/(1+10^((LogEC50−X)*HillSlope)), where X is the log of the concentration and Y is the response.

Human GPR120 short form [3] = molecular target: T2, Human GPR120 short form; assay: Human GPR120 in Calcium Flux Assay, Procedure Calcium A (2500 cells/well)
Source text: as §1
In this procedure 2500 cells/well were employed.
as §2, §3, §4, §5, §6, §7

| EC50 [1] [nM] | EC50 (Human GPR120 short form [2]) [nM] | EC50 (Human GPR120 short form [3]) [nM] | Compound |
| --- | --- | --- | --- |
| 402 | 91 | 204 | CCc1nc2c(COc3ccc(CCC(=O)O)c(C)c3C)cc(F)cc2s1 [Compound 105, 3-{4-[(2-Ethyl-6-fluoro-1,3-benzothiazol-4-yl)methoxy]-2,3-dimethylphenyl}propanoic acid] |
| 1550 | 499 | 1880 | Cc1c(CCC(=O)O)ccc(OCc2cc(Cl)cc3sc(C(C)(C)C)nc23)c1C [Compound 104, 3-{4-[(2-tert-Butyl-6-chloro-1,3-benzothiazol-4-yl)methoxy]-2,3-dimethylphenyl}propanoic acid] |
